IC50, EC50 and Stability data for 14 molecules are collected here from ChEMBL document CHEMBL4387726, “Design and synthesis of novel tellurodibenzoic acid compounds as kidney-type glutaminase (KGA) inhibitors” (Bioorg Med Chem Lett, 2019).

Data set [1] can be described thus: Inhibition of human KGA assessed as reduction in glutamate formation using glutamine as substrate pretreated with 0.5 hr followed by substrate addition and measured after 4 hrs by KGA/GDH coupled assay.
The nature of data set [2]: Inhibition of Escherichia coli GDH using glutamate as substrate pre treated with 1 hr followed by substrate addition and measured after 1 hr.
Data set [3] has as its system HCT-116. The data set is described as follows: Antiproliferative activity against human HCT116 cells assessed as reduction in cell viability after 5 days by EZMTT assay. The data set is classed as functional, cell-based. To be noted: HCT-116, 120 h.
Data set [4] in a line: Inhibition of Escherichia coli TrxR pre treated with 0.5 hr followed by DTNB addition and measured after 1 hr.
Data set [5] in a line: Stability of the compound in oxidative (H2O2) solution at 37 degC for 24 hrs by HPLC analysis. In kind it is physicochemical.
A short description of data set [6]: Stability of the compound in nucleophilic (beta-ME) solution at 37 degC for 24 hrs by HPLC analysis. The data set is classed as physicochemical.
The nature of data set [7]: Stability of the compound in nucleophilic (lysine) solution at 37 degC for 24 hrs by HPLC analysis. In kind it is physicochemical.
The nature of data set [8]: Stability of the compound in acidic (HCOOH) solution at 37 degC for 24 hrs by HPLC analysis. In kind it is physicochemical.
A short description of data set [9]: Stability of the compound in nucleophilic (DTT) solution at 37 degC for 24 hrs by HPLC analysis. The data set is classed as physicochemical.
Data set [10] can be described thus: Stability of the compound in basic (NH3.H2O) solution at 37 degC for 24 hrs by HPLC analysis. In kind it is physicochemical.

The term IC50 denotes the concentration at which inhibition is half-maximal. One may read the EC50 as the midpoint of the concentration-response curve. With `COC(=O)c1cc(Br)ccc1[Te]c1ccc(Br)cc1C(=O)OC`, the IC50 in [1], in [2] and in data set [4] was > 66.7 µM in each case. Also, the EC50 in [3] was > 50 µM.

Turning to `CNC(=O)c1cc(Br)ccc1[Te]c1ccc(Br)cc1C(=O)NC`, the IC50 in data set [1], in [2] and in [4] was > 66.7 µM in each case. In addition, the EC50 in [3] is > 50 µM.

In the case of `O=C(O)c1cc(O)ccc1[Te]c1ccc(O)cc1C(=O)O`, the IC50 in data set [1] is 6.3 µM; in [2] it was > 66.7 µM; in [4], > 66.7 µM. Also, in [3], the half-maximal effective concentration (EC50) turned out to be 18 µM.

Regarding `COc1cccc(C(=O)O)c1[Te]c1c(OC)cccc1C(=O)O`, the IC50 in data set [1], in data set [2] and in data set [4] was > 66.7 µM throughout. For the same molecule, the EC50 in data set [3] is > 50 µM.

Consider `O=C(O)c1cc(I)ccc1[Te]c1ccc(I)cc1C(=O)O`, for which the IC50 in data set [1] is 7.4 µM; in data set [2] it was > 66.7 µM; in data set [4], > 66.7 µM. Further, the EC50 in data set [3] came to 25.6 µM.

In the case of `CCNC(=O)c1cc(Br)ccc1[Te]c1ccc(Br)cc1C(=O)NCC`, the figures for the IC50 in data set [1], in [2] and in data set [4] were 62.8 µM, > 66.7 µM and > 66.7 µM, respectively. Also, the EC50 in data set [3] was > 50 µM.

On to `COc1ccc([Te]c2ccc(OC)cc2C(=O)O)c(C(=O)O)c1`, for which the IC50 in data set [1] was 7.8 µM; in data set [2] it was > 66.7 µM; in data set [4], > 66.7 µM. The EC50 in [3] was 10.2 µM.

As for `Cc1ccc([Te]c2ccc(C)cc2C(=O)O)c(C(=O)O)c1`, the IC50 was 10.2 µM in [1], > 66.7 µM in data set [2] and > 66.7 µM in [4]. In addition, the EC50 in [3] came to 16.9 µM.

For `O=C(O)c1ccccc1[Te]c1ccccc1C(=O)O`, the IC50 is 7 µM in [1], > 66.7 µM in [2] and > 66.7 µM in [4]. Also, the EC50 in data set [3] worked out at 17.8 µM.

Regarding `O=C(O)c1cc(Br)ccc1[Te]c1ccc(Br)cc1C(=O)O`, the Stability entry is recorded as “Stable” in [5]; “Unstable” in data set [6]; “Unstable” in [7]; “Stable” in data set [8]; “Unstable” in [9]; “Stable” in data set [10]. Also, the IC50 in data set [1] was 2.4 µM; in data set [2] it was > 66.7 µM; in data set [4], > 66.7 µM. In addition, the EC50 in [3] worked out at 5 µM.

As for `O=C(OCc1ccccc1)c1cc(Br)ccc1[Te]c1ccc(Br)cc1C(=O)OCc1ccccc1`, the IC50 in [1], in data set [2] and in data set [4] was > 66.7 µM throughout. Moreover, the EC50 in data set [3] was > 50 µM.

Consider `CCOC(=O)c1cc(Br)ccc1[Te]c1ccc(Br)cc1C(=O)OCC`, for which the IC50 in [1], in data set [2] and in data set [4] was > 66.7 µM throughout. The EC50 in data set [3] is > 50 µM.

Regarding `O=C(Nc1ccccc1)c1cc(Br)ccc1[Te]c1ccc(Br)cc1C(=O)Nc1ccccc1`, the IC50 in data set [1], in [2] and in data set [4] was > 66.7 µM throughout. Moreover, the EC50 in [3] was > 50 µM.

Consider `COc1ccc(C(=O)O)c([Te]c2cc(OC)ccc2C(=O)O)c1`, for which the IC50 in [1] was 11.3 µM; in [2] it was > 66.7 µM; in data set [4], > 66.7 µM. Moreover, in data set [3], the EC50 worked out at 7.5 µM.
